Reference: the supplement of paper PMC10307832

Legend:
Assay in all cases: relative viability (nuclei count vs DMSO), 5 days (fraction); higher = more cells survive
[1] = compound: CO[C@H]1C[C@@H]2CC[C@@H](C)[C@@](O)(O2)C(=O)C(=O)N2CCCC[C@H]2C(=O)O[C@H]([C@H](C)C[C@@H]2CC[C@@H](OCCO)[C@H](OC)C2)CC(=O)[C@H](C)/C=C(\C)[C@@H](O)[C@@H](OC)C(=O)[C@H](C)C[C@H](C)/C=C/C=C/C=C/1C [Everolimus] + Cc1nc(NC(=O)N2CCC[C@H]2C(N)=O)sc1-c1ccnc(C(C)(C)C(F)(F)F)c1 [Alpelisib] (partner 2 µM)
Procedure, shortened: (§1)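 Relative viability is defined as nuclei in treated wells over nuclei in vehicle wells. Duplicate plates were run and medians reported. Lung cancer cell lines in 1536-well plates were dosed by pin tool one day after seeding, with one drug or with a fixed anchor-drug dose plus five library-drug doses (not always all listed) in √10 steps, and nuclei were counted after 5 days.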

[2] = compound: CO[C@H]1C[C@@H]2CC[C@@H](C)[C@@](O)(O2)C(=O)C(=O)N2CCCC[C@H]2C(=O)O[C@H]([C@H](C)C[C@@H]2CC[C@@H](OCCO)[C@H](OC)C2)CC(=O)[C@H](C)/C=C(\C)[C@@H](O)[C@@H](OC)C(=O)[C@H](C)C[C@H](C)/C=C/C=C/C=C/1C [Everolimus] + COc1cccc2cc(-c3nc([C@H]4CC[C@H](C(=O)O)CC4)n4ncnc(N)c34)[nH]c12 [OSI-027] (partner 0.5 µM)
Procedure, shortened: as §1

[3] = compound: CO[C@H]1C[C@@H]2CC[C@@H](C)[C@@](O)(O2)C(=O)C(=O)N2CCCC[C@H]2C(=O)O[C@H]([C@H](C)C[C@@H]2CC[C@@H](OCCO)[C@H](OC)C2)CC(=O)[C@H](C)/C=C(\C)[C@@H](O)[C@@H](OC)C(=O)[C@H](C)C[C@H](C)/C=C/C=C/C=C/1C [Everolimus] + C[C@]1(O)C[C@@H](c2nc(-c3ccc4ccc(-c5ccccc5)nc4c3)c3c(N)nccn32)C1 [Linsitinib] (partner 1 µM)
Procedure, shortened: as §1

[4] = compound: CO[C@H]1C[C@@H]2CC[C@@H](C)[C@@](O)(O2)C(=O)C(=O)N2CCCC[C@H]2C(=O)O[C@H]([C@H](C)C[C@@H]2CC[C@@H](OCCO)[C@H](OC)C2)CC(=O)[C@H](C)/C=C(\C)[C@@H](O)[C@@H](OC)C(=O)[C@H](C)C[C@H](C)/C=C/C=C/C=C/1C [Everolimus] + CS(=O)(=O)CCNCc1ccc(-c2ccc3ncnc(Nc4ccc(OCc5cccc(F)c5)c(Cl)c4)c3c2)o1 [Lapatinib] (partner 2 µM)
Procedure, shortened: as §1

Cell Line	relative viability ([1]; first compound 0.01 µM)	relative viability ([1]; first compound 0.03162 µM)	relative viability ([1]; first compound 0.1 µM)	relative viability ([1]; first compound 0.3162 µM)	relative viability ([1]; first compound 1 µM)	relative viability ([2]; first compound 0.01 µM)	relative viability ([2]; first compound 0.03162 µM)	relative viability ([2]; first compound 0.1 µM)	relative viability ([2]; first compound 0.3162 µM)	relative viability ([2]; first compound 1 µM)	relative viability ([3]; first compound 0.01 µM)	relative viability ([3]; first compound 0.03162 µM)	relative viability ([3]; first compound 0.1 µM)	relative viability ([3]; first compound 0.3162 µM)	relative viability ([3]; first compound 1 µM)	relative viability ([4]; first compound 0.01 µM)	relative viability ([4]; first compound 0.03162 µM)	relative viability ([4]; first compound 0.1 µM)	relative viability ([4]; first compound 0.3162 µM)	relative viability ([4]; first compound 1 µM)
NCI-H1975	0.494	0.454	0.456	0.376	0.339	0.496	0.498	0.45	0.473	0.436	0.747	0.618	0.672	0.665	0.597	0.788	0.669	0.669	0.762	0.676
NCI-H1993	0.674	0.654	0.602	0.627	0.672	0.566	0.554	0.53	0.529	0.553	0.689	0.63	0.666	0.694	0.691	0.725	0.69	0.649	0.791	0.807
NCI-H2009	0.763	0.741	0.791	0.846	0.906	0.34	0.344	0.424	0.374	0.397	0.875	0.897	0.901	0.887	0.795	0.853	0.782	0.441	0.878	0.877
NCI-H2023	0.411	0.326	0.302	0.271	0.215	0.197	0.25	0.178	0.153	0.158	0.301	0.323	0.303	0.282	0.219	0.604	0.456	0.378	0.616	0.314
NCI-H2085	0.668	0.616	0.577	0.622	0.571	0.457	0.454	0.257	0.476	0.438	0.735	0.522	0.519	0.509	0.484	0.489	0.364	0.434	0.506	0.486
NCI-H2087	0.796	0.897	0.839	0.663	0.657	0.356	0.327	0.388	0.49	0.233	0.821	1.09	0.765	0.788	0.674	1.2	1.05	0.824	0.848	1.05
NCI-H2126	0.509	0.466	0.435	0.473	0.458	0.528	0.431	0.414	0.475	0.426	0.463	0.448	0.393	0.425	0.457	0.458	0.485	0.426	0.472	0.501
NCI-H2228	0.463	0.431	0.418	0.385	0.266	0.23	0.295	0.237	0.21	0.265	0.272	0.351	0.552	0.249	0.364	0.89	0.7	0.705	0.582	0.793
NCI-H2347	0.979	0.872	0.564	0.783	0.826	0.382	0.253	0.326	0.501	0.34	0.912	0.911	0.581	0.798	0.769	0.813	1.07	0.663	0.868	0.811
NCI-H2405	0.452	0.475	0.372	0.444	0.469	0.505	0.474	0.532	0.459	0.488	0.515	0.49	0.463	0.536	0.536	0.84	0.903	0.712	0.872	0.796
NCI-H3122	0.587	0.549	0.325	0.59	0.363	0.463	0.579	0.315	0.454	0.488	0.791	0.822	0.621	0.528	0.761	1.09	1.16	1.06	1.07	0.951
PC-3 [JPC-3]	0.881	0.828	0.793	0.789	0.747	0.7	0.602	0.588	0.512	0.631	0.869	0.914	0.785	0.834	0.866	0.372	0.382	0.346	0.359	0.412
PC-14	0.796	0.661	0.62	0.589	0.476	0.567	0.482	0.418	0.455	0.455	0.937	1	0.945	0.82	0.724	0.231	0.226	0.22	0.192	0.234
RERF-LC-KJ	0.632	0.463	0.408	0.481	0.53	0.449	0.358	0.313	0.411	0.429	0.86	0.679	0.609	0.531	0.571	0.636	0.597	0.503	0.487	0.486
SK-LU-1	0.46	0.471	0.565	0.555	0.661	0.225	0.187	0.248	0.269	0.265	0.501	0.66	0.552	0.614	0.631	0.638	0.624	0.576	0.49	0.61
SK-MES-1	0.486	0.461	–	0.44	0.368	0.398	0.512	0.499	0.414	0.483	0.964	0.661	0.689	0.606	0.511	0.358	0.384	0.326	0.384	0.325
SW 1573	0.449	0.374	0.441	0.334	0.346	0.42	0.309	0.352	0.345	0.365	0.615	0.454	0.506	0.401	0.386	0.649	0.705	0.627	0.686	0.572
UMC-11	0.348	0.304	0.301	0.32	0.311	0.272	0.288	0.257	0.297	0.277	0.443	0.391	0.419	0.388	0.393	0.373	0.326	0.306	0.433	0.438
